Patent US11607384B2, “Lipid emulsified drug delivery systems for chemoprevention and treatment” (WESTERN UNIVERSITY OF HEALTH SCIENCES, priority 2017, dated 2023)

Columns and labels:
[1] = test system: Panc-1 pancreatic cancer cells; experiment: Colorimetric MTS cytotoxicity assay in Panc-1 cells; assay type: cell-based, Human; conditions: Panc-1, 72 h
Description: (§1) Human PC cells MIA PaCa-2 and Panc-1 were obtained from American type culture collection (ATCC) (Rockville, Md.). Cells were maintained in Dulbecco's modified Eagle's medium (DMEM) containing 10% fetal bovine serum (FBS) obtained from ATCC. Cells were cultured at 37° C. in a humidified atmosphere of 5% CO2 and 95% air.
(§2) The cell viability assay was performed according to manufacturer's protocol with the Promega CellTitre 96 Aqueous MTS reagent (Madison, Wis., USA). Briefly, 7.5×10^3 cells were seeded in 96-well plates and incubated overnight. […] At the end of the incubation period, the growth medium was removed followed by addition of 100 μl media consisting of 20% MTS and 1% of phenazine methosulfate (PMS) and the mixture was incubated for 2 h at 37° C. MTS is bio-reduced by the cells into formazan which could be measured using a microplate reader at 490 nm. Thus, the quantity of formazan product measured by absorbance is directly proportional to the number of living cells in culture. IC50 values were determined using Graph Pad Prism software (San Diego, Calif., USA). All analysis was performed in triplicate and replicated.
(§3) The cytotoxicity of the various treatment groups were evaluated using a colorimetric MTS assay. The cell viability assay was performed according to the manufacturer's protocol with the Promega CellTitre 96 Aqueous MTS reagent (Madison, Wis., USA). Briefly, 7.5×10^3 cells were seeded in 96-well plates and were incubated overnight. The cells were treated with different concentrations of treatment groups followed by incubation for a period of 72 hours. At the end of the incubation period, the growth medium was removed followed by addition of 100 μl media consisting of 20% MTS and 1% of phenazine methosulfate (PMS) and the mixture was incubated for 2 h at 37° C. MTS is bio-reduced by the cells into formazan which could be measured using a microplate reader at 490 nm. Thus, the quantity of formazan measured by the absorbance is directly proportional to the number of living cells in culture.
The cell viability assay was performed according to the manufacturer's protocol with the Promega Cell Titre 96 Aqueous MTS reagent (Madison, Wis., USA). Briefly, 7.5×10^3 cells were seeded in 96-well plates and were incubated overnight. The cells were treated with different concentrations of treatment groups followed by incubation for a period of 72 h. At the end of the incubation period, the growth medium was removed followed by addition of 100 μl media consisting of 20% MTS and 1% of phenazine methosulfate (PMS) and the mixture was incubated for 2 h at 37° C. MTS is bio-reduced by the cells into formazan which could be measured using a microplate reader at 490 nm. Thus, the quantity of formazan measured by the absorbance is directly proportional to the number of living cells in culture.
A study to determine IC50 in in vitro cell line cultures of pancreatic cancer cell lines was performed. […] Cytotoxicity was evaluated using the colorometric MTS assay. […] MTS is bio-reduced by the cells into formazan which could be measured using a microplate reader at 490 nm. Thus, the quantity of formazan measured by the absorbance is directly proportional to the number of living cells in culture.
A study to determine IC50 in in vitro cell line cultures of pancreatic cancer cell lines was performed. […] Cytotoxicity was evaluated using the colorometric MTS assay.

[2] = test system: MIA-PaCa-2 pancreatic cancer cells; experiment: Colorimetric MTS cytotoxicity assay in MIA-PaCa-2 cells; assay type: cell-based, Human; conditions: for IC50: MIA-PaCa-2, 72 h
Description: as §1, §2
A study to determine IC50 (inhibitory concentration to kill 50% of cancer cells) in in vitro cell line cultures of pancreatic cancer cell line was performed.
The cell viability assay was performed according to the manufacturer's protocol with the Promega CellTitre 96 Aqueous MTS reagent (Madison, Wis., USA). Briefly, 7.5×10^3 cells were seeded in 96-well plates and were incubated overnight. The cells were treated with different concentrations of treatment groups followed by incubation for a period of 72 hours. At the end of the incubation period, the growth medium was removed followed by addition of 100 μl media consisting of 20% MTS and 1% of phenazine methosulfate (PMS) and the mixture was incubated for 2 h at 37° C. MTS is bio-reduced by the cells into formazan which could be measured using a microplate reader at 490 nm. Thus, the quantity of formazan measured by the absorbance is directly proportional to the number of living cells in culture. […] All analysis was performed in triplicate.
as §3
Cytotoxicity was evaluated in Mia PaCa 2 pancreatic cancer cells using the colorimetric MTS assay, as described above.
A study to determine IC50 in in vitro cell line cultures of pancreatic cancer cell lines was performed. […] Cytotoxicity was evaluated using the colorometric MTS assay. The cell viability assay was performed according to the manufacturer's protocol with the Promega Cell Titre 96 Aqueous MTS reagent (Madison, Wis., USA). Briefly, 7.5×10^6 cells were seeded in 96-well plates and were incubated overnight. The cells were treated with different concentrations of treatment groups followed by incubation for a period of 72 h.

## C[S+]([O-])CCCCN=C=S (centres unmarked) [Sulforaphane (free), Sulforaphane]
[1]; Table 10, MTS, LOR alone or in combination with free Sulforaphane
  IC50: 99.6 µM
[1]; Table 11, MTS, DES alone or in combination with free Sulforaphane
  IC50: 99.6 µM
[2]; Mia PaCa 2, at the concentration of 5 μM
  cell inhibition: did not show any significant cell inhibition
[2]; Table 5, MTS, combinations with fixed free Sulforaphane 5 μM
  IC50: 92.2 µM
[2]; Table 6, MTS, combinations with fixed free Sulforaphane 5 μM
  IC50: 92.2 µM

## CC(=O)O[C@H]1C(=O)[C@@]2(C)[C@H]([C@H](OC(=O)c3ccccc3)[C@]3(O)C[C@H](OC(=O)[C@H](O)[C@@H](NC(=O)c4ccccc4)c4ccccc4)C(C)=C1C3(C)C)[C@]1(OC(C)=O)CO[C@@H]1C[C@@H]2O [Paclitaxel]
[1]; Homo sapiens, Table 20, varied Paclitaxel, fixed LOR (free or system 2) 125 μM, Sulforaphane 5 μM
  IC50: 2.33 µM
[2]; Homo sapiens, Table 18, varied Paclitaxel, fixed LOR (free or system 2) 125 μM, Sulforaphane 5 μM
  IC50: 1.96 µM

## CCOC(=O)N1CCC(=C2c3ccc(Cl)cc3CCc3cccnc32)CC1 [LOR (free), Loratadine]
[1]; Homo sapiens, Table 9, MTS
  IC50: 357 µM
[2]; Homo sapiens, Table 4, MTS
  IC50: 326 µM

## Nc1ccn([C@@H]2O[C@H](CO)[C@@H](O)C2(F)F)c(=O)n1 [Gemcitabine]
[1]; Homo sapiens, Table 16, varied Gemcitabine, fixed LOR (free or system 2) 125 μM, Sulforaphane 5 μM
  IC50: 539 µM
[2]; Homo sapiens, Table 14, varied Gemcitabine, fixed LOR (free or system 2) 125 μM, Sulforaphane 5 μM
  IC50: 692 µM
